Reference: ChEMBL document CHEMBL1129009, “New aza-thioxanthones: Synthesis and cytotoxicity” (Bioorg Med Chem Lett, 1996)
pIC50: −log10 of the molar value.

How the values were obtained:
Assay type in all cases: functional, cell-based
Conditions in all cases: Homo sapiens
HOP-92 = experiment: Compound was evaluated for cytotoxicity against non small lung cancer HOP-92 cell line
MOLT-4 = experiment: Compound was evaluated for cytotoxicity against leukemic MOLT-4 cell lines
MCF7 = experiment: Compound was evaluated for cytotoxicity against breast cancer MCF-7 cell lines
SK-OV-3 = experiment: Compound was evaluated for cytotoxicity against ovarian carcinoma […] cell line
SW-620 = experiment: Compound was evaluated for cytotoxicity against colon SW-620 cell line

Row | SMILES | pIC50 (HOP-92) | pIC50 (MOLT-4) | pIC50 (MCF7) | pIC50 (SK-OV-3) | pIC50 (SW-620)
1 | O=C(CCN1CCCC1)Nc1ccc2sc3ccccc3c(=O)c2n1 | 4.74 | 5.47 | 4.77 | 5.28 | 4.81
2 | O=C(CCN1CCCCC1)Nc1ccc2sc3ccccc3c(=O)c2n1 | 6.39 | 5.59 | 4.80 | 4.63 | 5.08
3 | CCN(CC)CCC(=O)Nc1ccc2sc3ccccc3c(=O)c2n1 |  | 5.11 | 4.88 | 4.69 | 4.92
4 | O=C(CN1CCCC1)Nc1ccc2sc3ccccc3c(=O)c2n1 | 4.56 | 5.72 | 4.57 | 4.69 | 5.30
5 | O=C(CCN1CCOCC1)Nc1ccc2sc3ccccc3c(=O)c2n1 | 4.34 |  | 4.30 | 4.32 | 4.56
6 | O=C(CN1CCCCC1)Nc1ccc2sc3ccccc3c(=O)c2n1 | 4.82 | 5.57 | 4.71 | 4.67 | 5.27
